For the experiment, the target named is acetylcholine esterase AChE (Homo sapiens, UniProt P22303). The experiment is described as follows: biochemical. Type of experiment: biochemical. To be noted: Ellman's method; for IC50: AChEI activity. The method, then:
Acetylcholine esterase inhibitory activity of isolated compounds and their synthesized silver nanoparticles were assessed using Ellman’s method as previously prescribed.
Acetylcholine esterase inhibitory (AChEI) activity was assessed by using Ellman’s method.
(DTNB colorimetry detects thiols as they appear.)

The structures appear in SMILES notation.

acetylcholine esterase AChE, sequence (P22303 32-614): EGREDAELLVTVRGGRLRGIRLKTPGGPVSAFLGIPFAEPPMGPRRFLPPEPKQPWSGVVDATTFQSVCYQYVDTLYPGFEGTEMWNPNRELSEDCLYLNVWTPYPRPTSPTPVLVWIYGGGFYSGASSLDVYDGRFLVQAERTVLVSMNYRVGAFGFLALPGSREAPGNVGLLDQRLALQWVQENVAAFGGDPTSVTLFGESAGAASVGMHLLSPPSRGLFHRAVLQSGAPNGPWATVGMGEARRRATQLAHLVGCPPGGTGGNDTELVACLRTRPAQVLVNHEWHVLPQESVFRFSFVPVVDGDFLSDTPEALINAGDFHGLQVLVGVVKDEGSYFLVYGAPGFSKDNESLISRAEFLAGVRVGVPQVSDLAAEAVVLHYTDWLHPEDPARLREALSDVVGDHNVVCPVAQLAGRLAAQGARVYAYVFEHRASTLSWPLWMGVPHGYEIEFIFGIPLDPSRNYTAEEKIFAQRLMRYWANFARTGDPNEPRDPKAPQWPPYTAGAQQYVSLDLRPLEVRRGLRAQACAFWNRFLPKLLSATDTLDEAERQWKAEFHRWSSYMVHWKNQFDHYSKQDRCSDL

For `COc1cc(OC)c2c(O)c3c(=O)cc(C)oc3cc2c1` [Rubrofusarin B (2), Rubrofusarin B], half-maximal inhibition (IC50) was put at 13.9 ± 2.16 µM and the “AChE inhibitory activity (in words)” value was “moderate inhibitory activity”.

In the case of `COc1cc(OC)c2c(c1)cc(O)c1c(=O)cc(C)oc12` [Flavasperone (1), Flavasperone], the IC50 is over 25 µM and the “AChE inhibitory activity (in words)” value is listed as “didn’t show any inhibitory activity”.

In the case of `COc1cc(OC)c2c(O)c3c(=O)cc(C)oc3c(-c3c(OC)cc4cc5oc(C)cc(=O)c5c(O)c4c3OC)c2c1` [Aurasperone A (3), Aurasperone A], the IC50 was 4.9 ± 2.16 µM.

As to `COc1cc(OC)c2c(O)c3c(=O)cc(C)oc3c(-c3c(OC)cc4cc(O)c5c(=O)cc(C)oc5c4c3OC)c2c1` [Fonsecinone A (4), Fonsecinone A], the IC50 was determined as 7.52 ± 2.16 µM.

Compound `NC(=O)c1c[nH]c(Cc2ccccc2)cc1=O` [Asperginin A (7), Aspernigrin A] returned an IC50 of 20.2 ± 3.03 µM.

The IC50 is the point on the concentration scale where inhibition reaches its midpoint. Read a high IC50 as lower potency.

The record behind these values is article PMC8432876, “Acetylcholine esterase inhibitory activity of green synthesized nanosilver by naphthopyrones isolated from marine-derived Aspergillus niger” (PLoS ONE, 2021).
